{"source": "patent US4308168A", "about": "“Vapor phase corrosion inhibitor compositions and method of inhibiting corrosion using said compositions” (priority 1978, dated 1981)", "key": {"[1]": {"settings": "prior-art inhibitors; mineral oil; cited from earlier work"}, "[2]": {"test": "Rust formation on polished carbon steel at a distance of 25 cm in closed vessel (vapor phase, condensed water)", "set-up": "key: The amount of the rust is less than that in the blank test.; x: The amount of the rust is the same as that in the blank test", "settings": "20 mg sample, 5-liter vessel, 20°±2° C., observed 5 hours after water condensation", "method": "A laboratory dish containing 20 milligrams of each sample obtained in the preceding Examples was added to a 5-liter glass vessel containing 50 milliliters of 30% aqueous solution of glycerin.\nA piece of polished carbon steel (JIS G-4051) was arranged at the upper part of the vessel, at a distance of 25 centimeters from the dish. After keeping the vessel at 20°±2° C. during 1-5 days, water droplets were condensed on a surface of steel from moisture by pouring cold water into an aluminum pipe, and after 5 hours the presence of the rust on the steel piece was observed."}, "[3]": {"test": "Oral acute toxicity, LD50 in rats", "settings": "rat, in vivo, rats weighing 90 grams, fasted 24 hours, one week", "method": "Specifics of the chemicals listed in Table 2 were administered orally in various concentration to respective groups of 10 rats weighing 90 grams after fasting for 24 hours.\nAfter oral administration of the chemical, the rats were fed with a sufficient amount of a diet and water and kept in a thermo-hygrostat at a temperature of 25° C. and humidity of 60% during one week to determine the LD50."}, "[4]": {"settings": "ambient temperatures; cited from earlier work"}}, "data": [{"smiles": "C1CCC(NC2CCCCC2)CC1", "note": "[FERROGUARD]", "values": [{"measurement": "solubility in oil", "setting": "[1]", "result": "only slightly soluble in mineral oil"}]}, {"smiles": "CC(N)C(=O)OC(C)(C)C", "note": "(stereo not drawn) [α-alanine-tert-butyl ester, α-alanine-tert-butylester]", "values": [{"measurement": "presence of rust on steel piece, after leaving for 1 day", "setting": "[2]", "result": "o"}, {"measurement": "presence of rust on steel piece, after leaving for 5 days", "setting": "[2]", "result": "o"}, {"measurement": "solubility in water", "setting": "Solubility in water", "result": "wholly soluble in water"}]}, {"smiles": "CNCC(=O)OC(C)(C)C", "note": "[N-methylglycine-tert-butyl ester, N-methylglycine-tert-butylester]", "values": [{"measurement": "presence of rust on steel piece, after leaving for 1 day", "setting": "[2]", "result": "o"}, {"measurement": "presence of rust on steel piece, after leaving for 5 days", "setting": "[2]", "result": "o"}]}, {"smiles": "CC(C)(C)OC(=O)CCN", "note": "[β-alanine-tert-butyl ester, β-alanine-tert-butylester]", "values": [{"measurement": "presence of rust on steel piece, after leaving for 1 day", "setting": "[2]", "result": "o"}, {"measurement": "presence of rust on steel piece, after leaving for 5 days", "setting": "[2]", "result": "o"}, {"measurement": "solubility in water", "setting": "Solubility in water", "result": "wholly soluble in water"}]}, {"smiles": "CC(C)(C)OC(=O)CN", "values": [{"measurement": "presence of rust on steel piece, after leaving for 1 day", "setting": "[2]", "result": "o"}, {"measurement": "presence of rust on steel piece, after leaving for 5 days", "setting": "[2]", "result": "o"}]}, {"smiles": "CC(C)(C)OC(=O)[C@@H]1CCCN1", "note": "[proline-tert-butyl ester, proline-tert-butylester]", "values": [{"measurement": "presence of rust on steel piece, after leaving for 1 day", "setting": "[2]", "result": "o"}, {"measurement": "presence of rust on steel piece, after leaving for 5 days", "setting": "[2]", "result": "o"}, {"measurement": "LD50 at 168 h", "setting": "[3]", "result": "> 5000", "unit": "mg/kg"}]}, {"smiles": "CC(C)(C)OC(=O)[C@@H](N)Cc1ccccc1", "note": "[phenylalanine-tert-butyl ester, phenylalanine-tert-butylester]", "values": [{"measurement": "presence of rust on steel piece, after leaving for 1 day", "setting": "[2]", "result": "o"}, {"measurement": "presence of rust on steel piece, after leaving for 5 days", "setting": "[2]", "result": "o"}]}, {"smiles": "CCOC(=O)C(C)N", "note": "(stereo not drawn) [α-alanine ethyl ester]", "values": [{"measurement": "presence of rust on steel piece, after leaving for 1 day", "setting": "[2]", "result": "o"}, {"measurement": "presence of rust on steel piece, after leaving for 5 days", "setting": "[2]", "result": "o"}, {"measurement": "LD50 at 168 h", "setting": "[3]", "result": "> 5000", "unit": "mg/kg"}]}, {"smiles": "C1CCC(NC2CCCCC2)CC1", "note": "[dicyclohexylamine, reference compound]", "values": [{"measurement": "LD50 at 168 h", "setting": "[3]", "result": 500, "unit": "mg/kg"}]}, {"smiles": "C1CCC(NC2CCCCC2)CC1.O=[N+]([O-])O", "note": "[DICHAN, dicyclohexylamine nitrate, reference compound]", "values": [{"measurement": "presence of rust on steel piece, after leaving for 1 day", "setting": "[2]", "result": "x"}, {"measurement": "presence of rust on steel piece, after leaving for 5 days", "setting": "[2]", "result": "x"}, {"measurement": "LD50 at 168 h", "setting": "[3]", "result": 200, "unit": "mg/kg"}, {"measurement": "solubility in oil", "setting": "[1]", "result": "no solubility in oil"}, {"measurement": "distance of diffusion of gas", "setting": "[4]", "result": "about 30 cm."}]}]}
